Results as given in patent publication US20050004014A1, “New compound” (FUJISAWA PHARMACEUTICAL CO., LTD., priority 2003, published 2005).

Tested on: Candida albicans FP-633
Assay type: cell-based
Settings: FP-633, 24 h, pH 7.3
Procedure: In vitro antimicrobial activity of the object compound of Examples 1, 2, 3 and 4 disclosed later was determined by MICS in mouse serum as described below. The MICS in mouse serum were determined by the microdilution method using ICR mouse serum buffered with 20 mM HEPES buffer (pH 7.3) as a test medium. Inoculum suspension of 10^6 cells/ml were prepared by a hemocytometric procedure and diluted to obtain an inoculum size of approximately 1.0×10^3 cells/ml. Microplates were incubated at 37° C. for 24 hours in 5% CO2. The MICS were defined as the lowest concentrations at which no visible growth was observed.

MIC [µg/mL] | SMILES
<0.15 | COc1cc(C[C@@H](O)[C@@H]2NC(=O)[C@@H]3C[C@@H](O)CN3C(=O)[C@H]([C@@H](C)O)NC(=O)[C@@H](NCc3ccc(-c4nnc(-c5ccc(N6CCN([C@H]7CC[C@@H](C)CC7)CC6)cc5)s4)cc3)C[C@@H](O)CNC(=O)[C@@H]3[C@@H](O)[C@@H](C)CN3C(=O)[C@H]([C@H](O)CCN)NC2=O)ccc1O [Example 1]
<0.15 | COc1cc(C[C@@H](O)[C@@H]2NC(=O)[C@@H]3C[C@@H](O)CN3C(=O)[C@H]([C@@H](C)O)NC(=O)[C@@H](NCc3ccc(-c4ccc(N5CCN([C@H]6CC[C@](OC)(C7CCCCC7)CC6)CC5)cc4)cc3)C[C@@H](O)CNC(=O)[C@@H]3[C@@H](O)[C@@H](C)CN3C(=O)[C@H]([C@H](O)CCN)NC2=O)ccc1O [Example 2]
<0.15 | COc1cc(C[C@@H](O)[C@@H]2NC(=O)[C@@H]3C[C@@H](O)CN3C(=O)[C@H]([C@@H](C)O)NC(=O)[C@@H](NCc3ccc(-c4nnc(-c5ccc(N6CCC(OC)(C7CCCCC7)CC6)cc5)s4)cc3)C[C@@H](O)CNC(=O)[C@@H]3[C@@H](O)[C@@H](C)CN3C(=O)[C@H]([C@H](O)CCNC(CO)CO)NC2=O)ccc1O [Example 3]
<0.15 | COc1cc(C[C@@H](O)[C@@H]2NC(=O)[C@@H]3C[C@@H](O)CN3C(=O)[C@H]([C@@H](C)O)NC(=O)[C@@H](NCc3ccc(-c4nnc(-c5ccc(N6CCN(C7CCCCC7)CC6)cc5)s4)cc3)C[C@@H](O)CNC(=O)[C@@H]3[C@@H](O)[C@@H](C)CN3C(=O)[C@H]([C@H](O)CCNC(CO)CO)NC2=O)ccc1O [Example 4]
